{"source": "paper PMC7465886", "about": "“4-(N-Alkyl- and -Acyl-amino)-1,2,4-triazole-3-thione Analogs as Metallo-β-Lactamase Inhibitors: Impact of 4-Linker on Potency and Spectrum of Inhibition” (Biomolecules, 2020)", "key": {"[1]": {"target": "T1, VIM-1 (Pseudomonas aeruginosa, UniProt A0A0F7KYQ8)", "T1 construct": "made in house; host or cells: E. coli BL21(DE3) derivative, pET-9a", "assay": "MBL inhibition, reporter substrate method, VIM-1", "format": "biochemical", "details": "read-out: Inhibition of VIM-1 (dash)", "description": "(§1) Compounds were prepared in DMSO at a final concentration of 50 mM prior to dilution in the assay buffer. The reaction rate was measured as the variation of absorbance observed upon substrate hydrolysis in a UV-Vis spectrophotometer or microplate reader at a wavelength of 300 nm (imipenem, meropenem), 260 nm (cefotaxime), or 482 nm (nitrocefin) and in the presence of a purified MBL enzyme (such as VIM-1, VIM-2, VIM-4, NDM-1, and IMP-1, at a final concentration ranging from 1 to 70 nM).\n(§2) These enzymes were overproduced in derivatives of E. coli BL21(DE3) carrying a pET-9 a (IMP-1, VIM-1, VIM-2, and VIM-4) or pET-15 b (NDM-1) vector into which the metallo-β-lactamase-encoding open reading frame was cloned. Bacterial strains were grown in the auto-inducing medium, ZYP-5052, supplemented with 50 μg/mL kanamycin for 24 h at 37 °C [38]. IMP-1, VIM-1, VIM-2, and VIM-4 were purified by ion-exchange and gel filtration chromatography using an AKTA Purifier platform (GE Healthcare, Uppsala, Sweden) as previously described. NDM-1 (residues 37-270) was produced as an amino-terminal 6 xHis-tag fusion protein and was purified using affinity chromatography. After growth for 26 h at 25 °C, bacterial cells were harvested by centrifugation (10,000× g, 30 min, 4 °C), resuspended in 10 mM HEPES buffer (pH 7.5) containing 0.15 M NaCl (buffer A) in one-fifth of the original culture volume, and lysed by sonication. Cellular debris was removed by centrifugation (12,000× g, 40 min, 4 °C). The clarified sample was loaded on a HisTrap HP column (bed volume, 5 mL; GE Healthcare), followed by a wash step (25 mL) with buffer A containing 20 mM imidazole. Proteins were eluted using buffer A containing 350 mM imidazole. The resulting protein sample was desalted (HiPrep 26/10 Desalting column, GE Healthcare) using 20 mM triethanolamine (pH 7.2) supplemented with 50 μM ZnSO4 and concentrated using an Amicon Ultra-15 (MW cut-off, 10 kDa; Millipore, Burlington, MA, USA). The concentrated sample was loaded on a Superdex 75 prep grade column (XK16/100 column; bed volume, 140 mL; GE Healthcare) and the proteins eluted with buffer A containing 50 μM ZnSO4. The active fractions were pooled and stored at −20 °C. The purity of the protein preparations was estimated >95% by SDS-PAGE analysis. The authenticity of the enzyme preparations was confirmed by electron spray ionization mass spectrometry, as previously described.\n(§3) The inhibition constants (Ki) were determined on the basis of a model of competitive inhibition by analyzing the dependence of the ratio v0/vi (v0, hydrolysis velocity in the absence of inhibitor; vi, hydrolysis velocity in the presence of inhibitor) as a function of [I] as already described. The slope of the plot of v0/vi vs. [I], which corresponds to Km^S/(Km^S + [S])Ki (where Km^S is the Km value of the reporter substrate and [S] its concentration in the reaction mixture) and allowed the calculation of the Ki value. Alternatively, a Dixon plot analysis was carried out by measuring the initial hydrolysis rates in the presence of variable concentrations of inhibitor and substrate. This allowed Ki values to be determined and supported the hypothesis that the various compounds behaved as competitive inhibitors of the various tested enzymes. The assays were performed in triplicate."}, "[2]": {"target": "NDM-1 (Klebsiella pneumoniae, UniProt C7C422)", "sequence (C7C422 37-270 limits assumed)": "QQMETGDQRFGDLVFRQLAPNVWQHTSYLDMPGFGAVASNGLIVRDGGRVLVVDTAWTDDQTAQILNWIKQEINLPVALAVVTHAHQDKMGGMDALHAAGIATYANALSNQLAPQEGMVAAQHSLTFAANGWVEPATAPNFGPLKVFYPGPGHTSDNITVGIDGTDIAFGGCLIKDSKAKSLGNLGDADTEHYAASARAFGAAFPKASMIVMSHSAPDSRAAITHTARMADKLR", "assay": "MBL inhibition, reporter substrate method, NDM-1", "format": "biochemical", "description": "as §1, §2, §3"}, "[3]": {"target": "T2, VIM-2 (Escherichia coli, UniProt Q5U7L7)", "T2 construct": "made in house; host or cells: E. coli BL21(DE3) derivative, pET-9a", "assay": "Isothermal titration calorimetry of binding to VIM-2", "description": "ITC titrations were performed on a MicroCal ITC200 (GE-Malvern) equipped with a 200 µL Hastelloy sample cell and an automated 40 µL glass syringe rotating at 1000 rpm. VIM-2 in 10 mM Hepes-NaOH, 0.15 M NaCl, 50 µM ZnSO4, pH 7.5 was diluted to the desired concentration with the same buffer and was brought to a DMSO concentration identical to that of the injected compound. The tested compound was solubilized in DMSO at 20 mM concentration and was diluted to 200 µM with the enzyme buffer, resulting in a final DMSO concentration of 1%.\nIn a standard experiment, VIM-2 (19 µM) was titrated by one initiating injection (0.5 µL) followed by 19 injections (2 µL) of compound (200 µM) at an interval of 150 s. Dilution heat of compound injections into buffer, at the corresponding DMSO concentration, were subtracted from raw data. The data so obtained were fitted via nonlinear least squares minimization method to determine binding stoichiometry (n), association constant (Ka), and change in enthalpy of binding (∆H°b) using ORIGIN 7 software v.7 (OriginLab, Northampton, MA, USA). In the fitting procedure, the compound concentration was lowered in order to provide n around 1 and to take compound solubility into account under ITC conditions. The Gibbs free energy of binding, ∆G°b, was calculated from Ka (∆G°b = −RT ln Ka) and the entropic term, T∆S°b, was derived from the Gibbs–Helmholtz equation using the experimental ∆H°b value (∆G°b = ∆H°b − T∆S°b)."}}, "data": [{"smiles": "O=C(O)c1ccccc1CNn1c(-c2ccccc2)n[nH]c1=S", "note": "[Compound 1]", "values": [{"measurement": "inhibition at 100 µM", "setting": "[1]", "result": "< 30", "unit": "%"}, {"measurement": "Inhibition of NDM-1 (in words)", "setting": "[2]", "result": "inactive"}, {"measurement": "inhibition at 100 µM", "setting": "[2]; read-out: Inhibition of NDM-1 (dash in Ki column)", "result": "< 40", "unit": "%"}, {"measurement": "Kd", "setting": "[3]", "result": 358, "unit": "nM"}, {"measurement": "Ka", "setting": "[3]; 25 °C", "result": "2.8 ± 0.4", "unit": "µM⁻¹"}, {"measurement": "n, stoichiometry of binding", "setting": "[3]; 25 °C", "result": "1.01 ± 0.01"}, {"measurement": "∆H°b", "setting": "[3]; 25 °C", "result": "-6.3 ± 0.1", "unit": "kcal/mol"}, {"measurement": "∆G°b", "setting": "[3]; 25 °C, calculated from Ka", "result": -8.8, "unit": "kcal/mol"}, {"measurement": "T∆S°b", "setting": "[3]; 25 °C, from Gibbs–Helmholtz equation", "result": 2.5, "unit": "kcal/mol"}]}]}
